Among the data in ChEMBL document CHEMBL1157539, “Thousands of chemical starting points for antimalarial lead identification” (Nature, 2010) are XC50 values, retold here.

SMILES strings stand for the structures.

The experiment concerns Plasmodium falciparum. The experiment is described as follows: GSK_TCMDC: Inhibition of Plasmodium falciparum 3D7 in whole erythrocytes, using parasite LDH activity as an index of growth. Format: functional, organism-based. The settings on record: Plasmodium falciparum, 3D7.
In turn, `Oc1cc(NC[C@@H]2CCC[C@@H]2NCc2ccc(Cl)c(Cl)c2)nc2ccccc12` gave an XC50 of 602 nM.
As for `CCC(CC)CN1C(=O)C(c2ccccc2)(c2ccccc2)N=C1N`, the XC50 amounted to 970 nM.
Under `O=C(/C=C/c1ccc(Cl)c(Cl)c1)NCCCCCN1CCC(c2c[nH]c3c(-c4ccccc4)cccc23)CC1` stands 246 nM.
`CN(C)CCCN(C)C(=O)c1cc2cc(-c3ccccc3)ccc2n1S(=O)(=O)c1ccccc1` gave an XC50 of 462 nM.
Under `CCNc1cc(CCCC(=O)OCC)nc(Nc2ccc(C)cc2)n1` stands 771 nM.
Under `Fc1ccc2[nH]c(-c3cccc(-c4cccc(CN5CCN(c6ccncc6)CC5)c4)c3)nc2c1` stands 145 nM; under `O=C(Nc1cccc(N2CCC(NCCCc3ccncc3)CC2)c1)c1cccc(C(F)(F)F)c1`, 853 nM.
`Fc1ccc2[nH]c(-c3ccc(-c4ccc(CNCCN5CCNCC5)cc4)cc3)nc2c1` returned an XC50 of 850 nM.
Under `COc1cc(Cc2cnc(N)nc2N)cc(OCCCCC2NC(=O)NC2=O)c1OC` (centres undefined) stands 714 nM.
`Clc1cc(Cl)cc(Nc2ccnc(Nc3cc(Cl)cc(Cl)c3)n2)c1` displayed an XC50 of 672 nM.
Under `COc1ccc(-c2cccc(NC(=O)c3ccc(F)cc3)c2)cc1CNC(C)C` stands 1380 nM; under `CCC(C)(C)c1ccc(OCC(O)CN2CCCCC2)c(C(C)(C)CC)c1` (centres undefined), 1300 nM; under `Nc1cccc(C=CC(=O)N=c2cc[nH]c3ccccc23)c1`, 1060 nM.
Under `CCc1cn2c3c(cc(C(=O)N[C@@H](Cc4cc(F)cc(F)c4)[C@H](O)CNC4CC4)cc13)N(C)S(=O)(=O)CC2` stands 119 nM; under `Cc1cccc2nc(-c3ccc(-c4cccc(CN5CCC(C(N)=O)CC5)c4)s3)[nH]c12`, 1260 nM; under `CCc1ccc(C2CCN(CCCCNC(=O)c3ccc(NC(=O)c4ccc(Cl)cc4)cc3)CC2)c(OC(C)=O)c1`, 145 nM.
Under `CN1CCN(c2nsc3ccc(-c4ccc(OCCN5CCCC5)cc4)cc23)CC1` stands 826 nM; under `O=C(O[C@@H]1CN[C@H](C#Cc2cc3ncnc(Nc4ccc5c(cnn5Cc5cccc(F)c5)c4)c3s2)C1)N1CCCC1`, 757 nM.
Turning to `N=C(N)CCN(Cc1ccc(Cl)cc1)c1ccc(Cl)cc1`, the XC50 was 1060 nM.
Under `COc1ccc(-c2ccc(Nc3cccc(S(=O)(=O)CCN4CCC(CCN(C)C)CC4)c3)nc2)cn1` stands 1120 nM; under `O=C(NC1CCCc2ccccc21)C1CCCN(C(=O)c2ccc(O)c(-c3ccc(Cl)c(Cl)c3)c2)C1` (centres undefined), 1140 nM; under `CC(c1cccc(S(=O)(=O)NCc2cccc(C(F)(F)F)c2)c1)N1CCC(N2CCCCC2)CC1` (centres undefined), 695 nM.
Under `CC1(C)NC(N)=NC(=N)N1OCCCc1cccc(C(F)(F)F)c1` stands 3.2 nM; under `CCCN1CCc2c(sc3nc(SCC(=O)Nc4ccc(C)cc4)n(-c4ccc(C)cc4)c(=O)c23)C1`, 869 nM; under `Cc1ccc(C(=O)NC2CCN(CCNC(=O)Nc3cc(C)nc4ccccc34)CC2)cc1`, 490 nM.
`COc1ccc(C(=O)N[C@@H](CC(C)C)C(=O)NC2CC[C@@H](C)N(C(=O)Nc3ccc(Cl)cc3)CC2=O)cc1OCCN1CCOCC1` (some centres undefined) displayed an XC50 of 152 nM.
Consider `Cc1noc(-c2ccccc2)c1NC(=O)NC1CCN(CCCCCNC(=O)/C=C/c2ccc(Cl)c(Cl)c2)CC1`, for which the XC50 was found to be 985 nM.
Under `O=C1NC(=O)C(c2cccc(NC(=O)c3ccncc3)c2)=C1c1ccccc1` stands 735 nM.
Under `O=C(Nc1cccc(-c2ccc(-c3nc4cc(C(F)(F)F)ccc4[nH]3)cc2)c1)c1ccoc1` stands 714 nM.
Under `N#Cc1ccccc1N1CCN(C2CCC(NC(=O)c3n[nH]c4cc(C(F)(F)F)ccc34)CC2)CC1` (centres undefined) stands 1370 nM; under `C#CCNC(=O)c1ccc(-c2ccnc(Nc3cccc(CCCN4CCOCC4)c3)n2)s1`, 1000 nM.
In turn, `Cc1cc(Nc2cccc(C(F)(F)F)c2)nc2ccc(NC(=O)c3ccc(=O)[nH]c3)cc12` had an XC50 of 487 nM.
Under `O=S(=O)(c1cccc(F)c1)c1ccc(Nc2ncnc3cc(Br)sc23)cc1Cl` stands 1030 nM; under `CC(C)[C@H](NC(=O)c1c(F)cccc1F)C(=O)Nc1ccc(Cc2nc3ccccc3s2)cc1`, 498 nM; under `CCCC(C(CC1CCC(C)CC1)C(=O)NC(CCCNc1ncccn1)C(=O)Nc1nccs1)N(O)C=O` (centres undefined), 187 nM.
Turning to `CC(Cc1ccc(NC(=O)c2ccc(CNCc3ccccc3)cc2)cc1)N(CCc1cccc(Cl)c1)C(=O)OC(C)(C)C` (centres undefined), the XC50 is 974 nM.
Under `COc1ccc(CN(C2CC2)C(C)C(=O)c2[nH]c(C)c(C(C)=O)c2C)cc1` (centres undefined) stands 1590 nM; under `O=C(Nc1ccc(Cl)cc1Cl)N[C@H]1CCN(CCCCCNC(=O)C2CC2c2ccc(Cl)c(Cl)c2)C1` (some centres undefined), 989 nM; under `O=C(CCc1cccnc1)Nc1cccc(-c2ccc(-c3nc4cc(C(F)(F)F)ccc4[nH]3)cc2)c1`, 867 nM.
Under `CCCc1cccc(C)c1OCCCON1C(=N)N=C(N)NC1(C)C` stands 3.2 nM; under `Cc1cc(C(F)(F)F)n2nc(C3CCN(Cc4cc(C)c(O)c(C)c4)C3)cc2n1` (centres undefined), 758 nM; under `CC(COc1ccc2c(c1)OC(C)(C)CC2c1ccccc1)NCC(O)c1cccc(Cl)c1` (centres undefined), 752 nM.
Under `Fc1ccc2[nH]c(-c3ccc(-c4ccc(CNCc5cnn(-c6ccccc6)n5)cc4)cc3)nc2c1` stands 540 nM.
As for `CCC(=C(CC)c1ccc(O)c(CNC2CCCCC2)c1)c1ccc(O)c(CNC2CCCCC2)c1`, the XC50 was found to be 152 nM.
Under `OC(c1cccc(OCc2ccccc2)c1)C1CN(CCc2ccccc2)CCC1(O)c1ccccc1` (centres undefined) stands 218 nM; under `CN(C)CCNC(=O)c1ccc2c(c1)n(C1CCN(S(=O)(=O)c3ccc(-c4ccccc4)cc3)CC1)c(=O)n2CC1CCCCC1`, 624 nM; under `COc1ccc2c(c1)[nH]c1c(C=Cc3ccccc3)nccc12`, 379 nM.
`O=C(Nc1ccc(Cl)cc1)Nc1nc2cc([N+](=O)[O-])ccc2[nH]1`: the XC50 amounted to 801 nM.
Take `CCC1N=C(N)N=C(N)N1OCc1cccc2ccccc12` (centres undefined): the XC50 was 3.2 nM.
Turning to `Cc1ccc(NC(=O)c2ccc(CN3CCCN(Cc4cccc(O)c4)CC3)cc2)cc1`, the XC50 was 743 nM.
Under `CC(CCc1ccccc1)NCC(O)c1ccc2c(c1)S(=O)(=O)c1ccccc1N2` (centres undefined) stands 1220 nM; under `COc1cccc(OC2CCN(C(=O)c3ccc(-c4ccc(N5CCCC5=O)cc4C)cc3)CC2)c1`, 1010 nM; under `COc1ccc2ncc(F)c([C@@H](O)CN3CCC(NCc4cc5c(cn4)OCS5)CC3)c2c1`, 141 nM.
Regarding `COc1ccc(-c2cn3c(C(=O)Nc4ccccc4Cl)c(-c4ccccc4)c4c3n2CCCC4)cc1`, the XC50 came out at 792 nM.
With `COc1ccc2[nH]c(C)cc(=NN=Cc3ccc(Cl)cc3)c2c1`, the XC50 was found to be 228 nM.
Under `COc1ccccc1N1CCN(C(C(=O)NCc2cccc(F)c2)c2ccc(C)cc2)CC1` (centres undefined) stands 892 nM.
As to `CN(c1ccc(NC(=O)CCOc2ccccc2)cc1)C1CCN(Cc2cccc(O)c2)CC1`, the XC50 is 1320 nM.
In turn, `c1ccc(COc2ccc(COc3ccc(Cn4ccnc4)cc3)cc2)cc1` displayed an XC50 of 947 nM.
Turning to `Cc1cccc2nc(-c3ccc(-c4cccc(CN5CCC(C(N)=O)CC5)c4)cc3)[nH]c12`, the XC50 is 1770 nM.
Take `Cc1ccc(NC(=O)c2ccc3ncccc3c2)cc1OC1CCN(Cc2ccco2)C1` (centres undefined): the XC50 turned out to be 1250 nM.
Under `O=C(CCCCCNC(=O)c1ccc(O)c(-c2ccc(Cl)c(Cl)c2)c1)NC1CCCc2ccccc21` (centres undefined) stands 759 nM; under `O=C(NC1CCCCC1)N(Cc1cccc(-c2ccc(CNCc3ccc4c(c3)OCO4)cc2)c1)C1CCN(Cc2ccccc2)CC1`, 788 nM; under `O=C(Nc1ccc(-c2cccc(-c3nc4cc(F)ccc4[nH]3)c2)cc1)Nc1ccc(F)c(F)c1F`, 739 nM.
Molecule `COc1ccc2nc(N=C3NC4(c5ccccc5)NC(=Nc5nc6ccc(OC)cc6[nH]5)NC4(c4ccccc4)N3)[nH]c2c1` (centres undefined) showed an XC50 of 204 nM.
Under `CS(=O)(=O)c1ccc(CCNCc2ccc(-c3ccc(CN(C(=O)C4CCCC4)C4CCN(Cc5ccccc5)CC4)cc3)nc2)cc1` stands 832 nM; under `COc1ccc2nccc([C@@H](O)CN3CCC(CO)(NCc4cc5ccccc5o4)CC3)c2c1`, 1370 nM.
Under `COc1cc(F)c2ncc(Cl)c([C@H](O)CN3CCC(NCc4ccc5c(n4)NC(=O)CO5)CC3)c2c1` stands 161 nM; under `Cc1cc(NC(=O)c2cccs2)ccc1OC1CCN(Cc2ccccc2)C1` (centres undefined), 895 nM.
Under `O=C(NC1CCN(Cc2ccc(O)cc2)CC1)c1ccc(Cl)c(Cl)c1` stands 1180 nM; under `CC(=O)Nc1ccc(OCCCCN(Cc2ccccc2C(F)(F)F)c2ccc(C#N)c(C(F)(F)F)c2)cc1`, 1390 nM; under `CCN(CCCN1CCCCC1)c1cc(C)nc(Nc2ccc(Cl)cc2)n1`, 385 nM.
Consider `O=C(c1csc(-c2cccnc2)n1)N1CCc2cc3nccc(N4CCN5CCC[C@H]5C4)c3cc21`, for which the XC50 was determined as 695 nM.
Under `COc1cccc(CN2CCC(CCOC(c3ccccc3)c3ccccc3)CC2)c1O` stands 730 nM; under `O=C(NCc1cccc(F)c1)Nc1ccc(-c2cccc(-c3nc4ccccc4[nH]3)c2)cc1`, 894 nM.
Under `Nc1ncc(-c2cccc(F)c2)cc1-c1nc2cc(F)ccc2[nH]1` stands 175 nM; under `CC(=NNC(=N)N)c1ccc2c(ccc3ccccc32)c1`, 833 nM; under `O=C(Nc1cccc(-c2ccc(-c3nc4cc(F)ccc4[nH]3)cc2)c1)Nc1ccc(Cl)c(Cl)c1`, 139 nM.
Under `COc1ccc(F)cc1-c1cccc(CNC2CCN(CC3Cn4c(=O)ccc5ccc(F)c3c54)CC2)c1` (centres undefined) stands 830 nM.
Turning to `CC(=O)N(C)C1CCN(Cc2ccc(-c3ccc(-c4nc5cc(F)ccc5[nH]4)s3)cc2)C1` (centres undefined), the XC50 came to 971 nM.
Under `O=C(/C=C/c1ccc(Cl)c(Cl)c1)NCCCCCN1CCCC(CCCNC(=O)Nc2ccc(C(F)(F)F)cc2)C1` (centres undefined) stands 525 nM.
Under `Cc1[nH]c(C)c(-c2ccc(C#Cc3ccc(F)cc3F)cc2)c(=O)c1Br` stands 30.1 nM; under `CC1(C)Cc2c([nH]c3ccccc23)C(CCCCCCCCC2=NC(C)(C)Cc3c2[nH]c2ccccc32)=N1`, 933 nM.
Under `Oc1cccc(/C=N/Nc2ccnc3cc(Cl)ccc23)c1` stands 728 nM; under `COc1ccc2ncc(C#N)c(CCN3C[C@H](CNCc4ccccc4)[C@H](O)C3)c2n1`, 1060 nM.
